The values that follow come from US12091431B2, “Crystals” (AEROMICS, INC., priority 2016, dated 2024).

What is called solubility is the dissolved amount per volume that the medium holds.

What all share (format): physicochemical
The nature of data set [1]: Solubility in water.
A short description of data set [2]: Hydrolysis in the solid state. Particulars: reversion to N-[3,5-bis(trifluoromethyl)phenyl]-5-chloro-2-hydroxybenzamide.
The nature of data set [3]: Dynamic vapor sorption (DVS). Particulars: for weight change upon desorption: DVS desorption after sorption to 95% RH; for XRPD of the post-DVS material (form change): after DVS sorption/desorption cycle; for hygroscopicity, weight gain from 5-95% RH: summary statement. How it is done: Dynamic vapor sorption (DVS) data are collected on a VTI SGA-100 Vapor Sorption Analyzer. NaCl and PVP are used as calibration standards. Samples are not dried prior to analysis. Sorption and desorption data are collected over a range from 5% to 95% relative humidity (RH) at 10% RH increments under a nitrogen purge. The equilibrium criterion used for analysis is less than 0.0100% weight change in 5 minutes with a maximum equilibration time of 3 hours. Data are not corrected for the initial moisture content of the samples.

Data set [4] is described as follows: Stressing at elevated relative humidity. Particulars: ~97% RH for 7 days. How it is done:
The kinetic and thermodynamic hygroscopicity of Form A is assessed by DVS and stressing at elevated RH, respectively.

Data set [5] in a line: Slurry in water at room temperature, form by XRPD. How it is done:
The slurry is repeated for 19 hours to gauge how quickly the conversion occurs and results again in Form N, indicating form conversion within 19 hours (starting material is the product from this example and from Example 21).

Data set [6] is described as follows: Vacuum drying attempts of Form A. How it is done: Several attempts to dry Form A are tried. Rigorous conditions are initially selected due to the high temperature range at which the TGA weight loss is observed (above 90° C.). Drying under vacuum at 80° C. for 1 day results in brown solids stuck to the vial.
A drying attempt under milder conditions is attempted. The experiment begins by drying under vacuum at ambient temperature. […] Minor weight loss is noted after 6 hours at 63-65° C., so the sample is held in the vacuum oven at this temperature for 1 day, resulting in 11% gravimetric weight loss.

Converted amounts (≈) assume the structure as drawn. Read-outs that look alike come from different tables or passages of the source. A value given as a limit tells only on which side of the number the result lay.

Take `O=C(Nc1cc(C(F)(F)F)cc(C(F)(F)F)c1)c1cc(Cl)ccc1OP(=O)([O-])[O-].[Na+].[Na+]` [bis sodium salt, 2-((3,5-bis(trifluoromethyl)phenyl)carbamoyl)-4-chlorophenyl phosphate bis sodium salt]: the solubility in data set [1] (pH 8.5 water, pH 8.5, aqueous buffer, read-out: solubility in pH 8.5 water) was 20 mg/mL. For the same molecule, the “hydrolysis in the solid state” value in data set [2] is on record as 1 % per day.
Regarding `O=C(Nc1cc(C(F)(F)F)cc(C(F)(F)F)c1)c1cc(Cl)ccc1OP(=O)(O)O` [Form N, 2-{[3,5-bis(trifluoromethyl)phenyl]carbamoyl}-4-chlorophenyl dihydrogen phosphate hydrate], the “weight change upon desorption” value in data set [3] is listed as “All of this weight is lost”. Further, in data set [3] (DVS sorption, 5% to 95% RH, phosphate hydrate), the “weight gain upon sorption from 5% to 95% relative humidity” value amounted to 3 weight %. In addition, the “weight loss upon equilibration to 5% relative humidity” value in data set [3] (DVS, initial equilibration to 5% RH, residual water likely) was determined as 30%. For the same molecule, in data set [3] (phosphate hydrate), the “XRPD of the post-DVS material (form change)” value (shortened to “XRPD … (form change)”) was “no form change”. For the same molecule, the “hygroscopicity, weight gain from 5-95% RH” value in data set [3] (DVS, phosphate hydrate) is reported as approximately 3%.
Regarding `O=C(Nc1cc(C(F)(F)F)cc(C(F)(F)F)c1)c1cc(Cl)ccc1OP(=O)([O-])O.[Na+]` [mono sodium salt, 2-((3,5-bis(trifluoromethyl)phenyl)carbamoyl)-4-chlorophenyl hydrogen phosphate mono sodium salt], in data set [2], the “hydrolysis in the solid state” value turned out to be 1 % per day.
Turning to `O=C(Nc1cc(C(F)(F)F)cc(C(F)(F)F)c1)c1cc(Cl)ccc1O` [N-[3,5-bis(trifluoromethyl)phenyl]-5-chloro-2-hydroxybenzamide], in data set [1] (water, read-out: solubility in water), the solubility worked out at 0.003 mg/mL (≈ 7.82 µM).
With `O=C(Nc1cc(C(F)(F)F)cc(C(F)(F)F)c1)c1cc(Cl)ccc1OP(=O)(O)O` [Form B, 2-{[3,5-bis(trifluoromethyl)phenyl]carbamoyl}-4-chlorophenyl dihydrogen phosphate], in data set [3], the “weight change upon desorption” value was “All of this weight is lost” and the “XRPD … (form change)” value is listed as “no form change”. For the same molecule, in data set [3] (DVS sorption, 5% to 95% RH), the “weight gain upon sorption from 5% to 95% relative humidity” value turned out to be 0.6 weight %. Besides, the “weight loss at 5% relative humidity” value in data set [3] (DVS, 5% RH) is listed as 0.04 weight %. The “hygroscopicity, weight gain from 5-95% RH” value in data set [3] (DVS) is approximately 0.6%. For the same molecule, in data set [4], the “form after stressing at elevated relative humidity” value is on record as “partial conversion to Form N”. The “time for form conversion to Form N in water slurry” value in data set [5] is not above 19 h. Besides, the “form after slurrying with water” value in data set [5] (7 days, vacuum filtered) is given as “converts to Form N”.
As for `NCCO.NCCO.O=C(Nc1cc(C(F)(F)F)cc(C(F)(F)F)c1)c1cc(Cl)ccc1OP(=O)(O)O` [bis ethanolamine salt, 2-((3,5-bis(trifluoromethyl)phenyl)carbamoyl)-4-chlorophenyl phosphate bis ethanolamine salt], the “hydrolysis in the solid state” value in data set [2] came to 1 % per day.
On to `O=C(Nc1cc(C(F)(F)F)cc(C(F)(F)F)c1)c1cc(Cl)ccc1OP(=O)(O)O` [Form A, 2-{[3,5-bis(trifluoromethyl)phenyl]carbamoyl}-4-chlorophenyl dihydrogen phosphate ethyl acetate solvate], for which, in data set [3] (DVS desorption, 95% to 5% RH), the “weight loss upon desorption between 95% and 5% RH” value is 8.73%. For the same molecule, the “moisture uptake between 5% and 95% RH” value in data set [3] (DVS sorption, 5% to 95% RH) is listed as 6.07 wt %. Further, the “weight gain 5%-75% RH” value in data set [3] (DVS sorption, 5%-75% RH) is 1.65%. The “weight gain 75%-95% RH” value in data set [3] (DVS sorption, 75%-95% RH) came out at 4.42%. Moreover, in data set [3] (DVS, initial equilibration at 5% RH), the “weight loss upon equilibration at 5% RH” value is 0.76 wt %. In addition, in data set [3], the “XRPD … (form change)” value is recorded as “change to a disordered unknown material”. For the same molecule, the “hygroscopicity, weight gain from 5-95% RH” value in data set [3] (DVS) is listed as approximately 6%. Moreover, the “form after stressing at elevated relative humidity” value in data set [4] is recorded as “form change to a mixture of materials with a minor Form N (hydrate) component”. The figures for the “gravimetric weight loss on drying” value in data set [6] (under vacuum at 80° C. for 1 day) and in data set [6] (vacuum oven at 63-65° C. for 1 day) were 30% and 11%, respectively. Moreover, in data set [6] (vacuum, elevated temperature), the “outcome of vacuum drying at elevated temperature” value is “decomposition and collapse of the crystalline structure”.
